Test results taken from US7763617B2, “Pyrazolopyridine-4-yl pyridazinone derivatives and addition salts thereof, and PDE inhibitors comprising the same derivatives or salts as active ingredient” (Kyorin Pharmaceutical Co., Ltd., priority 2005, dated 2010).

How the values were obtained:
[1] = target: T1, PDE3A catalytic domain (PDE3Acat) (Homo sapiens, UniProt Q14432); assay: Inhibition of phosphodiesterase activity, [3H]-cAMP hydrolysis, recombinant PDE3Acat; assay type: biochemical; conditions: human recombinant PDE3Acat, cAMP 2 μmol/L; read-out: IC50(μmol/L) PDE3
T1 construct: cDNA fragments of PDE3A catalytic domain (indicated as “cat,” hereinafter); made in house; host or cells: Sf9 insect cells (baculovirus, Bac-to-Bac)
T1 sequence (Q14432 674-1093 limits assumed): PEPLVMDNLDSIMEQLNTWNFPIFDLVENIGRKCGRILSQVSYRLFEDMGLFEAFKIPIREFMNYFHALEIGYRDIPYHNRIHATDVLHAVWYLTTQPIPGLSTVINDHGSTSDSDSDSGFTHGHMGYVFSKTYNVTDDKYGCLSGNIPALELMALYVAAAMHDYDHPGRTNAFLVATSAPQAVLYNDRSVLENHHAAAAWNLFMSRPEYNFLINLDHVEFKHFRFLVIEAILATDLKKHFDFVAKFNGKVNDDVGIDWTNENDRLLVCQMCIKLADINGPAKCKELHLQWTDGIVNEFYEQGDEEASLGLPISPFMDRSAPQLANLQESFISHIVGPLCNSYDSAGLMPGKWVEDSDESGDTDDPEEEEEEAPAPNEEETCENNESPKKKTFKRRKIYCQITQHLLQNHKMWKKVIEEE
Procedure: (§1) RT-PCR was performed to isolate cDNA fragments of PDE3A catalytic domain (indicated as “cat,” hereinafter), PDE4Bcat, PDE5Acat and PDE10A1 from human RNA. Using Gateway system (Invitrogen) and Bac-to-Bac (registered trademark) Baculovirus Expression system (Invitrogen), the isolated cDNA fragments were transfected into Sf9 insect cells for expression of the PDE proteins. The recombinant PDE3Acat, PDE4Bcat, PDE5Acat and PDE10A1 proteins were isolated from culture supernatant or cell extracts of Sf9 cells expressed high levels of these proteins by ion-exchange chromatography and used for the following experiments.
(§2) 4 mmol/L solution of each test compound was serially diluted 4-fold with 15% DMSO solution to prepare the solutions with concentrations of 15 nmol/L to 4 mmol/L (final concentrations=1.5 nmol/L-400 μmol/L). 10 μL of each test compound solution was added to each well of 96 plate with 10 μL of [^3H]-cAMP or [^3H]-cGMP solution, diluted with a buffer (40 mmol/L Tris-HCl (pH 7.4), 10 mmol/L MgCl2) to the concentration shown in Table 20 and 40 μL of each of the human recombinant PDE proteins in units shown in Table 20. The plate was incubated at 30° C. for 20 min, and then at 65° C. for 2 min. Subsequently, 25 μL of 1 mg/mL 5′-nucleotidase (Crotalus atrox venom, Sigma) was added to each well and the plate was incubated at 30° C. for 10 min. 200 μL of Dowex solution (300 mg/mL Dowex 1×8-400 (Sigma Aldrich), 33% ethanol) was then added to each well and the plate was shaken at 4° C. for 20 min. Subsequently, 200 μL of MicroScint 20 (Packard) was added to each well and the radioactivity of each sample was measured by a scintillation counter (Topcount, Packard) IC50 was calculated by GraphPad Prism v3.03 (GraphPad Software).

PDE4Bcat = target: T2, PDE4Bcat (Homo sapiens, UniProt Q07343); assay: Inhibition of phosphodiesterase activity, [3H]-cAMP hydrolysis, recombinant PDE4Bcat; assay type: biochemical; conditions: cAMP 2 μmol/L, read-out: IC50(μmol/L) PDE4
T2 construct: catalytic domain (indicated as “cat,” hereinafter), PDE4Bcat; made in house; host or cells: Sf9 insect cells (baculovirus, Bac-to-Bac)
T2 sequence (Q07343 330-659 limits assumed): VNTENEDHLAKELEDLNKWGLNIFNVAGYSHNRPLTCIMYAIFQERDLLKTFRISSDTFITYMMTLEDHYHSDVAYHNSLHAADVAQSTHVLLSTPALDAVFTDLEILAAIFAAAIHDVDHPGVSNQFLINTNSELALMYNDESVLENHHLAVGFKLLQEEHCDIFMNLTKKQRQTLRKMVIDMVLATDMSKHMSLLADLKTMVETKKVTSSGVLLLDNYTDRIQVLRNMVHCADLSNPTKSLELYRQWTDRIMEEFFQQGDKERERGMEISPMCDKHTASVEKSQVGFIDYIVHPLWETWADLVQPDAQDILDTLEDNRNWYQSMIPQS
Procedure: as §1, §2

PDE5Acat = PDE5Acat (Homo sapiens, UniProt O76074); assay: Inhibition of phosphodiesterase activity, [3H]-cGMP hydrolysis, recombinant PDE5Acat; assay type: biochemical; conditions: cGMP 2 μmol/L, read-out: IC50(μmol/L) PDE5
Procedure: as §1, §2

PDE10A1 = target: T3, PDE10A1 (Homo sapiens, UniProt Q9Y233); assay: Inhibition of phosphodiesterase activity, [3H]-cAMP hydrolysis, recombinant PDE10A1; assay type: biochemical; conditions: human recombinant PDE10A1, cAMP 0.2 μmol/L; read-out: IC50(μmol/L) PDE10
T3 construct: made in house; host or cells: Sf9 insect cells (baculovirus, Bac-to-Bac)
T3 sequence (Q9Y233 1-779 isoform Q9Y233-1): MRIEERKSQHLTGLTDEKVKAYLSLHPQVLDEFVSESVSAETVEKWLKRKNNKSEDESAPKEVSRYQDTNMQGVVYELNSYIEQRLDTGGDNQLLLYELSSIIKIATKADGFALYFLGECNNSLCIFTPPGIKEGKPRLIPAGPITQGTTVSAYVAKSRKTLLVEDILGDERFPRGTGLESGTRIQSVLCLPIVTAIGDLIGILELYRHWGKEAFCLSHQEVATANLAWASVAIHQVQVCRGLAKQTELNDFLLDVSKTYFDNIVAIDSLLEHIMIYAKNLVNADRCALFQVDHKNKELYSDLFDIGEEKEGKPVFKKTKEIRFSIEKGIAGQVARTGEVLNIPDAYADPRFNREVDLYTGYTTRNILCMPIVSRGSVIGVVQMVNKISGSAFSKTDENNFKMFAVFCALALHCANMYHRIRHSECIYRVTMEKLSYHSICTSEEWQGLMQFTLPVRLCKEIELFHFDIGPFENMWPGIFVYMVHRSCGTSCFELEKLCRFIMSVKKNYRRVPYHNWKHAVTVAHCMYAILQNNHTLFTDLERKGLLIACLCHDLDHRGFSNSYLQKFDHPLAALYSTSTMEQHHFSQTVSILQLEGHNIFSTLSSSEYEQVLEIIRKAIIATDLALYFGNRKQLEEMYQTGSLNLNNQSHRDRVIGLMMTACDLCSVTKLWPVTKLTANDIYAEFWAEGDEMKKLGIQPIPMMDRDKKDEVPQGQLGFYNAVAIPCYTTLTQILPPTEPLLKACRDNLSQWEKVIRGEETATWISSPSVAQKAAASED
Procedure: as §1, §2

[2] = test system: isolated guinea pig tracheal smooth muscles; assay: Relaxant effect on histamine-induced contraction of isolated guinea pig tracheal smooth muscles; conditions: Cavia porcellus; histamine 10^-5 mol/L contraction, relaxation as % of maximum response to papaverine 10^-4 mol/L; read-out: IC50(μmol/L), concentration required to 50% relaxation
Procedure: Guinea pigs were exsanguinated and the trachea was immediately isolated and cut into 2 to 3 cartilage ring segments to prepare tracheal ring preparations. The tracheal rings were suspended in 10 mL of Tyrode's solution bubbled with a gaseous mixture of 95% O2+5% CO2 at 37° C. The composition of the Tyrode's solution (mM) was as follows: NaCl 136.9, KCl 2.7, CaCl2 1.8, MgCl2 1.0, NaH2PO4 0.4, NaHCO3 11.9 and Gucose 5.6. The contractile response was measured by an isometric transducer (UM-203, KISHIMOTO) and recorded on a recorder ([…] SERVOCORDER SR6221). After about 1 hour incubation with 1.5 g of resting tention, histamine (10^−5 mol/L) was added to induce the contractile response. After confirming the response, the preparations were washed with Tyrode's solution (10 mL×3). Then indomethacin (10^−5 mol/L) was applied and the preparations were equilibrated for at least 30 min under 1.5 g tension. Subsequently, histamine (10^−5 mol/L) was applied. After the contraction reached a steady state, each compound was added in a cumulative manner (10^−8 mol/L-3×10^−5 mol/L). Each compound was prepared as a 10^−1 mol/L solution in DMSO, which was diluted with distilled water for use. After addition of test compounds, papaverine (10^−4 mol/L) was added to determine the maximum relaxation of the preparation. Relaxant response of test compounds were expressed as a percentage of the maximum response to papaverine. IC50 was defined as a concentration of the compound required to 50% relaxation. DMSO was used as a control.

[3] = test system: histamine-induced bronchoconstriction; assay: Histamine-induced bronchoconstriction in guinea pigs; assay type: in vivo, guinea pig; conditions: Cavia porcellus, iv, 0.5 min, 30 seconds after administration, histamine 12.5 μg/kg i.v.; for inhibition in vivo at 1 mg/kg: test compound 1 mg/kg i.v.; for inhibition in vivo at 0.1 mg/kg: values in brackets: test compound 0.1 mg/kg, i.v.
Procedure: Guinea pigs were anesthetized with pentobarbital (30 mg/kg, i.p.). A cannula for IV administeration, a cannula for collecting blood and measurement of blood pressure and a trachea cannula were inserted into the left exterior jugular vein, right interior carotid artery and trachea, respectively. The animals were placed under artificial respiration at 60 times/min and 10 mL/kg/stroke. The airflow through the branch of the tracheal cannula was measured by a bronchospasm transducer (Ugo-Basile) and recorded on a computer via Power Lab (ADInstruments Japan). The animals were immobilized with gallamine (10 mg/kg, i.v.), then administered histamine at 10-minute intervals (12.5 μg/kg, i.v.). […] To examine the inhibitory activity of test compound, the histamine-induced bronchoconstriction was measured after 30 seconds of drug administration. The bronchoconstriction was recorded as the change of the airflow: The results were shown by percentages of the maximum histamine-induced bronchoconstriction. Each test compound was prepared as a 10 mg/mL solution in DMSO. Gallamine was prepared as a 10 mg/mL solution in physiological saline. Histamine was prepared as a 1 mg/mL solution in physiological saline, which was diluted with physiological saline to 62.5 μg/mL for use.

Question: What does the source list for `CCc1cc2c(C3=NNC(=O)CC3C)cccn2n1` (stereo not shown) [Example 201]?
Answer: IC50 [1]: 1 to 10 µmol/L; IC50 (PDE4Bcat): > 10 µmol/L; IC50 (PDE5Acat): > 10 µmol/L; IC50 (PDE10A1): 1 to 10 µmol/L; IC50 [2]: 0.93 µmol/L; inhibition in vivo at 1 mg/kg [3]: ≥ 90%; melting point: 231 to 233 °C

Question: For `CCc1cc2c(C3=NNC(=O)CC3C)cc(Cl)cn2n1` (stereo not shown) [Example 311, 6-(6-chloro-2-ethyl-pyrazolo[1,5-a]pyridine-4-yl)-5-methyl-4,5-dihydro-3-(2H)-pyridazinone], which IC50 [2] is on record?
Answer: The IC50 was 2 µmol/L.

Question: And the melting point?
Answer: The melting point was 172 to 174 °C.

Question: With `CCc1cc2c(-c3n[nH]c(=O)cc3C)cccn2n1` [Example 305] as the molecule, how does the melting point read?
Answer: The melting point was 229 to 231 °C.

Question: With `COc1ccc(C2=NNC(=O)CC2C)c2cc(C(F)(F)F)nn12` (single isomer, unassigned; (+)) [Example 317, (+)-6-(7-methoxy-2-trifluoromethyl-pyrazolo[1,5-a]pyridine-4-yl)-5-methyl-4,5-dihydro-3-(2H)-pyridazinone] as the molecule, how does the IC50 [1] read?
Answer: The IC50 was 0.1 to 1 µmol/L.

Question: What about the IC50 (PDE4Bcat) of the same molecule?
Answer: The IC50 was under 1 µmol/L.

Question: What about the IC50 (PDE5Acat) of the same molecule?
Answer: The IC50 was over 10 µmol/L.

Question: And the IC50 (PDE10A1)?
Answer: Its IC50 is 1 to 10 µmol/L.

Question: What about the IC50 [2] of the same molecule?
Answer: Its IC50 is 0.127 µmol/L.

Question: And the inhibition in vivo at 0.1 mg/kg [3]?
Answer: The inhibition in vivo at 0.1 mg/kg was at least 90%.

Question: With `COc1ccc(C2=NNC(=O)CC2C)c2cc(C(F)(F)F)nn12` (stereo not shown) [205(211), 6-(7-methoxy-2-trifluoromethyl-pyrazolo[1,5-a]pyridine-4-yl)-4,5-dihydro-5-methyl-3-(2H)-pyridazinone] as the molecule, how does the IC50 [1] read?
Answer: The IC50 was 1 to 10 µmol/L.

Question: And the IC50 (PDE4Bcat)?
Answer: Its IC50 is under 1 µmol/L.

Question: What about the IC50 (PDE5Acat) of the same molecule?
Answer: Its IC50 is over 10 µmol/L.

Question: What about the IC50 (PDE10A1) of the same molecule?
Answer: The IC50 was 1 to 10 µmol/L.

Question: And the IC50 [2]?
Answer: The IC50 was 0.3 µmol/L.

Question: And the inhibition in vivo at 0.1 mg/kg [3]?
Answer: The inhibition in vivo at 0.1 mg/kg was at least 90%.

Question: For `CCc1cc2c(-c3ccc(=O)[nH]n3)cccn2n1` [Example 304], which IC50 [1] is on record?
Answer: Its IC50 is 1 to 10 µmol/L.

Question: And the IC50 (PDE4Bcat)?
Answer: The IC50 was over 10 µmol/L.

Question: What about the IC50 (PDE5Acat) of the same molecule?
Answer: The IC50 was over 10 µmol/L.

Question: What about the IC50 (PDE10A1) of the same molecule?
Answer: Its IC50 is over 10 µmol/L.

Question: And the IC50 [2]?
Answer: The IC50 was 0.89 µmol/L.

Question: What about the inhibition in vivo at 1 mg/kg [3] of the same molecule?
Answer: The inhibition in vivo at 1 mg/kg was at least 90%.
